The test system of one assay is mice. The assay is described as follows: rotating rod test in mice (sedative/muscle relaxant properties), i.v. Type of assay: in vivo, mouse. The following applies: for ED50: Mus musculus, iv. The method, then:
The sedative/muscle relaxant properties of the compounds of formula II in accordance with the invention can be determined, for example, in the rotating rod test. Mice weighing 19-21 g are used for this test. They have free access to feed and drinking water up to 1 hour prior to the beginning of the test. They are brought into the test laboratory at least 30 minutes prior to the test. In the rotating rod test the animals are placed on a horizontally arranged, smooth metal rod having a diameter of 3 cm., which is rotated at 2 revolutions per minute. Initially, the animals are given the opportunity of familiarizing themselves with the test situation for 30 seconds. Subsequently, those animals which succeed in remaining on the rod for at least 1 minute are selected. The test preparations are then administered intraveneously to these animals in different dosages. At various points in time it is then determined whether the animals are able to remain for a minimum period on the rod (minimum period: 10 seconds, 1 minute from 5 minutes after administration). That dosage at which 50% of the animals are capable of remaining on the rod is determined (ED50).

Assay [1] deals with central benzodiazepine receptors. Briefly: inhibition of the binding of tritiated flumazenil to the specific benzodiazepine receptors in the cortex of rats. The settings on record: 50% inhibition of specific binding of tritiated flumazenil, rat cortex; read-out: Affinity to benzodiazepine receptors IC50. The procedure: The affinity of compounds of general formula I to the central benzodiazepine receptors was established in vitro according to the methods described in Nature 294, 763-765 (1981) and J. Neurochemistry 37, 714-722 (1981). According to these methods the inhibition of the binding of tritiated flumazenil to the specific benzodiazepine receptors in the cortex of rats by the respective test substances is determined. The IC50 ("50% inhibiting concentration") denotes that concentration of the respective test substance which brings about a 50 percent inhibition of the specific binding of tritiated flumazenil to the specific benzodiazepine receptors in the cortex of rats.

[2] abbreviates: 15 s, minimum time 10 sec, 15 sec after administration.
[3] abbreviates: 0.5 min, minimum time 10 sec, 30 sec after administration.
Setting [4] is: 1 min, minimum time 10 sec, 60 sec after administration.
Where [5] appears, read: 2 min, minimum time 10 sec, 2 min after administration.
[6] abbreviates: 5 min, minimum time 60 sec, 5 min after administration.
[7] abbreviates: 0.25 h, minimum time 60 sec, 15 min after administration.
Where [8] appears, read: 0.5 h, minimum time 60 sec, 30 min after administration.
[9] abbreviates: 1 h, minimum time 60 sec, 60 min after administration.

Bounds are passed on as bounds.

The term IC50 denotes the concentration that gives 50% inhibition. The term ED50 denotes the midpoint of the dose-response relation. Read a low ED50 as greater potency.

Regarding “2-Chloro-4-(2-fluorophenyl)-8,9-dihydro-6H-imidazo[1,2-a]thieno[3,2-f][1,4]diazepine-8-methanol”, the “Rotating rod test, ED50” value was 0.5 mg/kg in the assay with mice (minimum time 10 sec, 15 sec after administration, 0.25 min); 0,7 mg/kg with mice (minimum time 10 sec, 30 sec after administration, 0.5 min); 0.6 mg/kg in the assay with mice (minimum time 10 sec, 60 sec after administration, 1 min); 1.2 mg/kg in the assay on mice (minimum time 10 sec, 2 min after administration); 2.3 mg/kg with mice (minimum time 60 sec, 5 min after administration); 5.3 mg/kg in the assay with mice (minimum time 60 sec, 15 min after administration). Moreover, the “Rotating rod test, ED50” value in the assay on mice (minimum time 60 sec, 30 min after administration) is at least 10 mg/kg; in the assay on mice (minimum time 60 sec, 60 min after administration), above 10 mg/kg. Also, in assay [1], the IC50 was 2.6 nM.
As to `CC(=O)OCc1cn2c(n1)CN=C(c1ccccc1F)c1cc(Cl)sc1-2` [B], the ED50 in the assay with mice (setting [2]) is 0.6 mg/kg; in the assay on mice (setting [3]), 0.7 mg/kg; in the assay with mice (setting [4]) it was 1.2 mg/kg; in the assay with mice (setting [5]) it was 1 mg/kg; with mice (setting [6]) it was at least 10 mg/kg; with mice (setting [7]), at least 10 mg/kg. The 50% effective dose (ED50) in the assay on mice (setting [8]) was at least 10 mg/kg; in the assay with mice (setting [9]), above 10 mg/kg. Moreover, in assay [1], the half-maximal inhibitory concentration (IC50) was found to be 6 nM.
On to `OCc1cn2c(n1)CN=C(c1ccccc1F)c1cc(Cl)ccc1-2` [C, 8-Chloro-6-(2-fluorophenyl)-4H-imidazo[1,2-a]benzodiazepine-2-methanol], for which the ED50 in the assay on mice (setting [2]) was 0.1 mg/kg; in the assay on mice (setting [3]) it was 0.3 mg/kg; in the assay on mice (setting [4]) it was 0.3 mg/kg; with mice (setting [5]), at least 10 mg/kg; in the assay with mice (setting [6]), 0.8 mg/kg; with mice (setting [7]), 0.4 mg/kg. In addition, the ED50 in the assay with mice (setting [8]) is 1.1 mg/kg; with mice (setting [9]) it was at least 10 mg/kg. Moreover, the IC50 in assay [1] amounted to 1.7 nM.
Regarding `C=CCNCc1c(CO)nc2n1-c1ccc(Cl)cc1C(c1ccccc1F)=NC2` [D, 1-Allylaminomethyl-8-chloro-6-(2-fluorophenyl)-4H-imidazo[1,2-a][1,4]benzodiazepine-2-methanol], the 50% effective dose (ED50) with mice (setting [2]) amounted to 2.5 mg/kg; with mice (setting [3]), 3 mg/kg; in the assay on mice (setting [4]), 3.2 mg/kg; with mice (setting [5]), 3.2 mg/kg; in the assay on mice (setting [6]), 2.1 mg/kg; with mice (setting [7]), 1.8 mg/kg. The median effective dose (ED50) with mice (setting [8]) is at least 10 mg/kg; in the assay on mice (setting [9]), above 10 mg/kg. Besides, in assay [1], the half-inhibitory concentration (IC50) came to 5.6 nM.
In the case of `OCc1cn2c(n1)CN=C(c1ccccc1Cl)c1cc(Cl)ccc1-2` [E, 8-Chloro-6-(2-chlorophenyl)-4H-imidazo[1,2-a][1,4]benzodiazepine-2 methanol], the 50% effective dose (ED50) is at most 0.32 mg/kg in the assay with mice (setting [2]); 0.4 mg/kg with mice (setting [3]); 0.5 mg/kg in the assay on mice (setting [4]); 3.2 mg/kg with mice (setting [5]); 0.9 mg/kg in the assay with mice (setting [6]); 0.5 mg/kg with mice (setting [7]). Further, the ED50 with mice (setting [8]) and in the assay on mice (setting [9]) was at least 3.2 mg/kg throughout. Also, the concentration for half-maximal inhibition (IC50) in assay [1] stood at 1.2 nM.
For the compound `OCc1cn2c(n1)CN=C(c1ccccc1)c1cc(C(F)(F)F)ccc1-2` [F, 8-Trifluoromethyl-6-phenyl-4H-imidazo[1,2-a][1,4]benzodiazepine-2 methanol], the median effective dose (ED50) with mice (setting [2]) was 1 mg/kg; with mice (setting [3]) it was 1.1 mg/kg; in the assay with mice (setting [4]) it was 1.1 mg/kg; in the assay with mice (setting [5]) it was above 3.2 mg/kg; in the assay on mice (setting [6]), 1 mg/kg; in the assay with mice (setting [7]) it was 0.9 mg/kg. The ED50 in the assay on mice (setting [8]) is 1.1 mg/kg; in the assay on mice (setting [9]), 1.8 mg/kg. In assay [1], the 50% inhibitory concentration (IC50) worked out at 12 nM.
As for `O=[N+]([O-])c1ccc2c(c1)C(c1ccccc1F)=NCc1nc(CO)cn1-2` [G, 6-(2-Fluorophenyl)-8-nitro-4H-imidazo[1,2-a][1,4]benzodiazepine-2 methanol], the median effective dose (ED50) in the assay with mice (setting [2]) amounted to 0.2 mg/kg; with mice (setting [3]) it was 0.2 mg/kg; with mice (setting [4]), 0.3 mg/kg; with mice (setting [5]), 0.3 mg/kg; with mice (setting [6]), 0.1 mg/kg; with mice (setting [7]), 0.2 mg/kg. The ED50 was 0.2 mg/kg with mice (setting [8]) and at least 1 mg/kg in the assay on mice (setting [9]). Besides, the IC50 in assay [1] came out at 2.3 nM.
On to `OCc1cn2c(n1)CN=C(c1ccccc1F)c1cc(I)ccc1-2` [H, 6-(2-Fluorophenyl)-8-iodo-4H-imidazo[1,2-a][1,4]benzodiazepine-2 methanol], for which the 50% effective dose (ED50) with mice (setting [2]) was 0.1 mg/kg; in the assay with mice (setting [3]), 0.06 mg/kg; in the assay with mice (setting [4]) it was 0.09 mg/kg; in the assay on mice (setting [5]), 0.1 mg/kg; in the assay with mice (setting [6]) it was 0.1 mg/kg; with mice (setting [7]) it was 0.1 mg/kg. Moreover, the values for the 50% effective dose (ED50) in the assay on mice (setting [8]) and with mice (setting [9]) were at least 1 mg/kg and above 1 mg/kg, respectively. Besides, in assay [1], the IC50 came out at 2.07 nM.
Turning to `OCc1cn2c(n1)CN=C(c1ccccn1)c1cc(Br)ccc1-2` [I, 8-Bromo-6-(2-pyridyl)-4H-imidazo[1,2-a][1,4]benzodiazepine-2 methanol], the ED50 with mice (setting [2]) is 1.5 mg/kg; in the assay with mice (setting [3]), 2 mg/kg; in the assay with mice (setting [4]), 3 mg/kg; in the assay on mice (setting [5]), above 10 mg/kg; in the assay on mice (setting [6]), 1.4 mg/kg; in the assay on mice (setting [7]), 1.8 mg/kg. The 50% effective dose (ED50) in the assay on mice (setting [8]) was 3 mg/kg; in the assay on mice (setting [9]), at least 10 mg/kg. The IC50 in assay [1] came out at 40 nM.

The record behind these values is patent publication US6174881A, “Hydroxymethylimidazodiazepines and their esters” (Hoffman-La Roche Inc., priority 1995, dated 2001).
